Laboratory results reported in ChEMBL document CHEMBL5104190, “Design, Synthesis, Biological Activity, and Structural Analysis of Novel Des-C-Ring and Aromatic-D-Ring Analogues of 1α,25-Dihydroxyvitamin D3” (J Med Chem, 2022).
pIC50: −log10 of the molar value. Activity calls are given as the source filed them. The calls are words filed in the database; no cut-off is given here.

Assays:
MCF7 = assay: Increase in E-cadherin expression level in human MCF7 cells at 0.1 to 100 nM measured for 48 hrs by Western blot analysis; format: functional, cell-based; settings: dose 0.1-100 nM
Vitamin D3 receptor = target: T1, Vitamin D3 receptor (Homo sapiens, UniProt P11473); assay: Competitive binding affinity to His-tagged human VDR LBD (156 to 453 residues) expressed in Escherichia coli […] (DE3) cells in presence of 1,25D3 by fluorescent polarization assay
T1 sequence (P11473 whole entry): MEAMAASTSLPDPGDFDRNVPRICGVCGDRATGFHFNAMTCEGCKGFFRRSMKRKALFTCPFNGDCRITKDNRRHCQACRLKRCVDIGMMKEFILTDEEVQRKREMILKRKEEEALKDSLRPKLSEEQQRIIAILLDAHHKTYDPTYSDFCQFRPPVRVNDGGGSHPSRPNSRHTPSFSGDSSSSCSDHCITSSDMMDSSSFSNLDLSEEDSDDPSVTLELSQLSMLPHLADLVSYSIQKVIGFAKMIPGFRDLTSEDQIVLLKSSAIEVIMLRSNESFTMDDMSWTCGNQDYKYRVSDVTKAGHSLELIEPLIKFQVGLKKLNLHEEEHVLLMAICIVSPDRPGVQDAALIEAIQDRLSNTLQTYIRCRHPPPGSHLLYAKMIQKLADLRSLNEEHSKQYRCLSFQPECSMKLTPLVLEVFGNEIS

[1] = target: T2, Vitamin D3 receptor (Homo sapiens) (UniProt P11473); assay: Competitive binding affinity to His-tagged human VDR LBD (156 to 453 residues) expressed in Escherichia coli […] (DE3) cells at 0.1 to 100 nM in presence of 1,25D3 by fluorescent polarization assay relative to (1R,3S)-5-(2-((1R,3aS,7aR)-1-((R)-6-hydroxy-6-methylheptan-2-yl)-7a-methyloctahydro-4H-inden-4-ylidene)ethylidene)-4-methylenecyclohexane-1,3-diol; settings: dose 0.1-100 nM
T2 sequence (whole entry): T1 sequence (P11473 whole entry)

CYP24A1 = target: T3, CYP24A1 (Homo sapiens, UniProt Q07973); assay: Induction of CYP24A1 (unknown orgin) transcriptional activity trasfected in human MCF7 cells at 0.1 to 1000 nM incuabted for 48 hrs by luciferase reporter gene assay relative to (1R,3S)-5-(2-((1R,3aS,7aR)-1-((R)-6-hydroxy-6-methylheptan-2-yl)-7a-methyloctahydro-4H-inden-4-ylidene)ethylidene)-4-methylenecyclohexane-1,3-diol; format: ADME, cell-based; settings: MCF7 cells transfected with CYP24A1 luciferase reporter, dose 0.1-1000 nM
T3 sequence (Q07973 whole entry): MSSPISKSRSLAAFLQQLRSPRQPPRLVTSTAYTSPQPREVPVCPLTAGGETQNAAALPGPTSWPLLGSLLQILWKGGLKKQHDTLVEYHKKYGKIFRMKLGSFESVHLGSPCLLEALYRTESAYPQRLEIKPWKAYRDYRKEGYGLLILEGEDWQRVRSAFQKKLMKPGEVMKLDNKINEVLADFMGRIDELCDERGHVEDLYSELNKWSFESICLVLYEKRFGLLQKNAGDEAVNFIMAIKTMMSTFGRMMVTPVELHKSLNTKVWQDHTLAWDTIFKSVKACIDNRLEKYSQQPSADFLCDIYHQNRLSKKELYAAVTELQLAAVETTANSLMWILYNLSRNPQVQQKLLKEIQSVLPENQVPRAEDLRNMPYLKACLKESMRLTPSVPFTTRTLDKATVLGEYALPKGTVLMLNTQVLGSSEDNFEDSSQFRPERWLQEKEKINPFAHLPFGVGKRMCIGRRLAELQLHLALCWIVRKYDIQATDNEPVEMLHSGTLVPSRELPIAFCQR

| pIC50 (Vitamin D3 receptor) | Emax [1] | Emax at 48 h (CYP24A1) | Compound | Activity (MCF7) |
| --- | --- | --- | --- | --- |
| 7.56 | 4.5% | 54% | C=C1/C(=C\C=C(/CCCCCC(C)(C)O)c2cccc(CCCCCC(C)(C)O)c2)C[C@@H](O)C[C@@H]1O | Active |
| 7.80 | 7.9% | 102% | C=C1/C(=C\C=C\c2cc(CCCCCC(C)(C)O)cc(CCCCCC(C)(C)O)c2)C[C@@H](O)C[C@@H]1O | Active |
